# Assay results: patent publication US10034861B2 (priority 2016, dated 2018)
# pIC50: −log10 of the molar value. Where two headings read alike, the source gives them in different places.
# What was measured:
# Type in all cases: biochemical
# PDE1B = PDE1B (Homo sapiens (Human), UniProt Q01064); assay: PDE1 inhibition assay (PDE1B); conditions: 15 nM tritium labelled cAMP, 1 hr at room temperature, SPA beads; for pIC50: read-out: PDE1B, IC50; for IC50: PDE1B, IC50 (nM)
# Text: (§1) Table 1 lists the IC50 value for inhibition of PDE1 by the compounds of the invention. […] PDE1 assays are described in the Experimental Section.
# PDE1A = PDE1A (Homo sapiens (Human), UniProt P54750); assay: biochemical; conditions: 15 nM tritium labelled cAMP, 1 hr at room temperature, SPA beads
# Text: as §1
# PDE1C = PDE1C (Homo sapiens (Human), UniProt Q14123); assay: biochemical
# Text: as §1
# [1] = 15 nM tritium labelled cAMP, 1 hr at room temperature, SPA beads
# Chain of PDE1C (Q14123 whole entry): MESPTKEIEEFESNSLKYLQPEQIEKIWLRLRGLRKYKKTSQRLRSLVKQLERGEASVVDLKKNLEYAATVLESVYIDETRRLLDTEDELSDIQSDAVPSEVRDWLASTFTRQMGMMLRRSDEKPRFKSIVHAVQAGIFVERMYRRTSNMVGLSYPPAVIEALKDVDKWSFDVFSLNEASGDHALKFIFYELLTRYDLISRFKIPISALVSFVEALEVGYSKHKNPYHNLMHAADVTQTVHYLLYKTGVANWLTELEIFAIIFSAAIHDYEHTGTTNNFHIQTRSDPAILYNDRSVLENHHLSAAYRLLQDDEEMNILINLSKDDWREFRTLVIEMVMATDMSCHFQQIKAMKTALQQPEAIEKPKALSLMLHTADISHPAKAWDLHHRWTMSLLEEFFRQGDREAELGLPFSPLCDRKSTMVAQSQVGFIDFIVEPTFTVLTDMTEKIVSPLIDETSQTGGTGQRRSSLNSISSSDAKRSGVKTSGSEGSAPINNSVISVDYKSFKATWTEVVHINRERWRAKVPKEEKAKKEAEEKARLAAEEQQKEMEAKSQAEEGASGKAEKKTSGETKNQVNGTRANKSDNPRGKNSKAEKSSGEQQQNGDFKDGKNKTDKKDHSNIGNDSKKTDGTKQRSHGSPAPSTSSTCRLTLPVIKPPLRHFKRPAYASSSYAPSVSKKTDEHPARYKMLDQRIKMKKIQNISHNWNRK
# Chain of PDE1B (Q01064 whole entry): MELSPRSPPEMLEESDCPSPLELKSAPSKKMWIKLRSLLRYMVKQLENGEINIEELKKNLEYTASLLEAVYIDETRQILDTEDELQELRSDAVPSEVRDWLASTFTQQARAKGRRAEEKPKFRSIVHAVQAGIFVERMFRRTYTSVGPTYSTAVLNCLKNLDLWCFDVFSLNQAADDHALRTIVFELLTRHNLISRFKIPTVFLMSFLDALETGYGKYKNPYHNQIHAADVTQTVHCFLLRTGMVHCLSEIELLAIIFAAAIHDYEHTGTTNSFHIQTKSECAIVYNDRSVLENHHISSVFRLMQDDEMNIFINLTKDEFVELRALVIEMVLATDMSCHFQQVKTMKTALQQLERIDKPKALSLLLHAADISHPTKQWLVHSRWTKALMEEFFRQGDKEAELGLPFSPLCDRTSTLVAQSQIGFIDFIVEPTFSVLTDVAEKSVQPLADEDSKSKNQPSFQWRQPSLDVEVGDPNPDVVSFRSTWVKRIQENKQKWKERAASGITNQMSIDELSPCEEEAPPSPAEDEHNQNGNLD
# Chain of PDE1A (P54750 whole entry): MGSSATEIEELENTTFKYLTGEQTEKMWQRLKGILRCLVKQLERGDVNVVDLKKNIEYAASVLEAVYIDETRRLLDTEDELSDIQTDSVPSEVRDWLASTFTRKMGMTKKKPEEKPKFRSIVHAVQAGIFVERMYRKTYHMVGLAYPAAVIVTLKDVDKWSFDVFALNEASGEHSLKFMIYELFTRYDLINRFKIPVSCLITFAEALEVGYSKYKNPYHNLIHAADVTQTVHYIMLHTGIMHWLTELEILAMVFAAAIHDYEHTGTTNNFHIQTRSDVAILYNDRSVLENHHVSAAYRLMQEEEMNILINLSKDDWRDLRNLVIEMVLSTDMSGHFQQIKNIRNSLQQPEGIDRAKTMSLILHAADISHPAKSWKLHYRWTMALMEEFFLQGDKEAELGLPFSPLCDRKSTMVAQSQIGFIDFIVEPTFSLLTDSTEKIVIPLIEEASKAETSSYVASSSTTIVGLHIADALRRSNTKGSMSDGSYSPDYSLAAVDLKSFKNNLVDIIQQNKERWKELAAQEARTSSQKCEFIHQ
SMILES,pIC50 (PDE1B),pIC50 (PDE1A),pIC50 (PDE1C; [1]),IC50 (PDE1B),pIC50 (PDE1C)
"CCOc1ncccc1-c1cc(NCc2nnc(C)s2)c2c(n1)c(C)nn2C(C)C [Example 33, 5-(2-ethoxy-3-pyridyl)-1-isopropyl-3-methyl-N-[(5-methyl-1,3,4-thiadiazol-2-yl)methyl]pyrazolo[4,3-b]pyridin-7-amine]",9.39,8.80,8.10,,
"Cc1nn(C(C)C)c2c(NCc3cnn(C)c3)cc(-c3ccc[nH]c3=O)nc12 [Example 177, 3-[1-isopropyl-3-methyl-7-[(1-methylpyrazol-4-yl)methylamino]pyrazolo[4,3-b]pyridin-5-yl]-1H-pyridin-2-one]",7.70,6.89,6.74,,
"CCOc1ncccc1-c1cc(NCc2cccnc2C(F)F)c2c(n1)c(C)nn2C(C)C [Example 178, N-[[2-(difluoromethyl)-3-pyridyl]methyl]-5-(2-ethoxy-3-pyridyl)-1-isopropyl-3-methyl-pyrazolo[4,3-b]pyridin-7-amine]",8.49,7.51,7.20,,
"CCOc1ncccc1-c1cc(NCc2cc(C)cs2)c2c(n1)c(C)nn2C(C)C [Example 35, 5-(2-ethoxy-3-pyridyl)-1-isopropyl-3-methyl-N-[(4-methyl-2-thienyl)methyl]pyrazolo[4,3-b]pyridin-7-amine]",8.77,8.14,7.49,,
"CCOc1ncccc1-c1cc(NCc2ccnn2C)c2c(cnn2C(C)C)n1 [Example 18, 5-(2-ethoxypyridin-3-yl)-1-isopropyl-N-((1-methyl-1H-pyrazol-5-yl)methyl)-1H-pyrazolo[4,3-b]pyridin-7-amine]",7.14,6.35,6.19,,
"CCOc1ncccc1-c1cc(NCc2cccc(C)n2)c2c(n1)c(C)nn2C(C)C [Example 101, 5-(2-ethoxy-3-pyridyl)-1-isopropyl-3-methyl-N-[(6-methyl-2-pyridyl)methyl]pyrazolo[4,3-b]pyridin-7-amine]",9.05,7.70,7.37,,
"Cc1cnc(-c2cc(NCc3cnn(C)c3)c3c(n2)c(C)nn3C(C)C)s1 [Example 148, 1-isopropyl-3-methyl-N-[(1-methylpyrazol-4-yl)methyl]-5-(5-methylthiazol-2-yl)pyrazolo[4,3-b]pyridin-7-amine]",7.24,6.96,7.07,,
"CCOc1ncccc1-c1cc(NCc2cncc(OC)n2)c2c(n1)c(C)nn2C(C)C [Example 82, 5-(2-ethoxy-3-pyridyl)-1-isopropyl-N-[(6-methoxypyrazin-2-yl)methyl]-3-methyl-pyrazolo[4,3-b]pyridin-7-amine]",9.00,7.80,7.46,,
"COc1ncccc1-c1cc(NCc2cnn(C)c2)c2c(n1)c(C)nn2C(C)C [Example 62, 1-isopropyl-5-(2-methoxy-3-pyridyl)-3-methyl-N-[(1-methylpyrazol-4-yl)methyl]pyrazolo[4,3-b]pyridin-7-amine]",8.62,7.80,7.68,,
"CCCn1ncc2nc(-c3cccnc3OCC)cc(NCc3cnn(C)c3)c21 [Example 13, 5-(2-ethoxy-3-pyridyl)-N-[(1-methylpyrazol-4-yl)methyl]-1-propyl-pyrazolo[4,3-b]pyridin-7-amine]",7.82,7.05,6.47,,
"CCOc1ncccc1-c1cc(NCc2ccc(OC)nc2)c2c(n1)c(C)nn2C(C)C [Example 111, 5-(2-ethoxy-3-pyridyl)-1-isopropyl-N-[(6-methoxy-3-pyridyl)methyl]-3-methyl-pyrazolo[4,3-b]pyridin-7-amine]",8.85,7.55,7.17,,
"Cc1nn(C(C)C)c2c(NCc3cnn(C)c3)cc(-c3nccs3)nc12 [Example 147, 1-isopropyl-3-methyl-N-[(1-methylpyrazol-4-yl)methyl]-5-thiazol-2-yl-pyrazolo[4,3-b]pyridin-7-amine]",8.68,7.92,7.55,,
"CCOc1ncccc1-c1cc(NCc2nn[nH]n2)c2c(n1)c(C)nn2C(C)C [Example 99, 5-(2-ethoxy-3-pyridyl)-1-isopropyl-3-methyl-N-(2H-tetrazol-5-ylmethyl)pyrazolo[4,3-b]pyridin-7-amine]",9.51,9.14,8.42,,
"CCOc1ncccc1-c1cc(NCc2cc[nH]n2)c2c(cnn2C(C)C)n1 [Example 57, 5-(2-ethoxy-3-pyridyl)-1-isopropyl-N-(1H-pyrazol-3-ylmethyl)pyrazolo[4,3-b]pyridin-7-amine]",8.32,7.01,6.77,,
"CCOc1ncccc1-c1cc(CNc2ncn(C)n2)c2c(n1)c(C)nn2C(C)C [Example 158, N-[[5-(2-ethoxy-3-pyridyl)-1-isopropyl-3-methyl-pyrazolo[4,3-b]pyridin-7-yl]methyl]-1-methyl-1,2,4-triazol-3-amine]",8.31,7.64,7.30,,
"CCOc1ncccc1-c1cc(NCc2cc[nH]n2)c2c(n1)c(C)nn2C(C)C [Example 39, 5-(2-ethoxy-3-pyridyl)-1-isopropyl-3-methyl-N-(1H-pyrazol-3-ylmethyl)pyrazolo[4,3-b]pyridin-7-amine]",9.37,8.09,7.89,,
"CCOc1ncccc1-c1cc(NCc2ccccc2F)c2c(n1)c(C)nn2C(C)C [Example 89, 5-(2-ethoxy-3-pyridyl)-N-[(2-fluorophenyl)methyl]-1-isopropyl-3-methyl-pyrazolo[4,3-b]pyridin-7-amine]",8.82,7.21,7.03,,
"CCOc1ncccc1-c1cc(NCc2cnn(C)c2)c2c(cnn2C2COC2)n1 [Example 14, 5-(2-ethoxypyridin-3-yl)-N-((1-methyl-1H-pyrazol-4-yl)methyl)-1-(oxetan-3-yl)-1H-pyrazolo[4,3-b]pyridin-7-amine]",7.42,6.35,6.52,,
"Cc1nn(C)cc1-c1cc(NCc2cnn(C)c2)c2c(n1)c(C)nn2C(C)C [Example 61, 5-(1,3-dimethylpyrazol-4-yl)-1-isopropyl-3-methyl-N-[(1-methylpyrazol-4-yl)methyl]pyrazolo[4,3-b]pyridin-7-amine]",6.92,6.26,6.17,,
"CCCOc1ncccc1-c1cc(NCc2cc[nH]n2)c2c(n1)c(C)nn2C(C)C [Example 143, 1-isopropyl-3-methyl-5-(2-propoxy-3-pyridyl)-N-(1H-pyrazol-3-ylmethyl)pyrazolo[4,3-b]pyridin-7-amine]",9.59,8.42,8.04,,
"CCOc1ncccc1-c1cc(NCc2cc(CF)no2)c2c(n1)c(C)nn2C(C)C [Example 167, 5-(2-ethoxy-3-pyridyl)-N-[[3-(fluoromethyl)isoxazol-5-yl]methyl]-1-isopropyl-3-methyl-pyrazolo[4,3-b]pyridin-7-amine]",9.00,7.96,7.48,,
"CCOc1ncccc1-c1cc(NCc2c[nH]cn2)c2c(n1)c(C)nn2C(C)C [Example 40, 5-(2-ethoxy-3-pyridyl)-N-(1H-imidazol-4-ylmethyl)-1-isopropyl-3-methyl-pyrazolo[4,3-b]pyridin-7-amine]",9.00,7.85,7.49,,
"CCOc1ncccc1-c1cc(NCc2ncn(C)n2)c2c(cnn2C(C)CC)n1 (single isomer, unassigned) [Example 141, 5-(2-ethoxy-3-pyridyl)-1-[1-methylpropyl]-N-[(1-methyl-1,2,4-triazol-3-yl)methyl]pyrazolo[4,3-b]pyridin-7-amine]",,7.36,,2.2 nM,7.12
"CCOc1ncccc1-c1cc(NCc2csc(C)c2)c2c(n1)c(C)nn2C(C)C [Example 34, 5-(2-ethoxy-3-pyridyl)-1-isopropyl-3-methyl-N-[(5-methyl-3-thienyl)methyl]pyrazolo[4,3-b]pyridin-7-amine]",8.74,8.09,7.68,,
"CCN(C)c1ncccc1-c1cc(NCc2ccc(OC)cc2)c2c(n1)c(C)nn2C(C)C [Example 198, 5-(2-(ethyl(methyl)amino)pyridin-3-yl)-1-isopropyl-N-(4-methoxybenzyl)-3-methyl-1H-pyrazolo[4,3-b]pyridin-7-amine]",6.62,5.96,6.00,,
"CCOc1ncccc1-c1cc(NCc2ccc(OC)cn2)c2c(n1)c(C)nn2C(C)C [Example 112, 5-(2-ethoxy-3-pyridyl)-1-isopropyl-N-[(5-methoxy-2-pyridyl)methyl]-3-methyl-pyrazolo[4,3-b]pyridin-7-amine]",7.92,7.21,7.00,,
"COc1ncccc1CNc1cc(-c2ccnn2C)nc2c(C)nn(C(C)C)c12 [Example 175, 1-isopropyl-N-((2-methoxypyridin-3-yl)methyl)-3-methyl-5-(1-methyl-1H-pyrazol-5-yl)-1H-pyrazolo[4,3-b]pyridin-7-amine]",7.77,7.08,6.89,,
"Cc1nn(C(C)C)c2c(NCc3cnn(C)c3)cc(-c3nncn3C)nc12 [Example 203, 1-isopropyl-3-methyl-N-[(1-methylpyrazol-4-yl)methyl]-5-(4-methyl-1,2,4-triazol-3-yl)pyrazolo[4,3-b]pyridin-7-amine]",6.74,6.39,6.38,,
"CCOc1ncccc1-c1cc(NCc2nc[nH]n2)c2c(n1)c(C)nn2C(C)CC (single isomer, unassigned) [Example 144, 5-(2-ethoxy-3-pyridyl)-3-methyl-1-[1-methylpropyl]-N-(1H-1,2,4-triazol-3-ylmethyl)pyrazolo[4,3-b]pyridin-7-amine]",,7.85,7.64,1.1 nM,
